Counter-ions that a name gives are not always drawn.

The target of one data set is T1, c-MET (Homo sapiens, UniProt P08581).
T1 construct: The recombinant DNA His-Tev-MET (956-1390) in pFastBac(Invitrogen); His (N, cleaved yes); Tev (TEV protease site) (N, cleaved yes); made in house; host or cells: SF21 insect cells (baculovirus, pFastBac)
In words: Test A: HTRF Met test in 96-well format. Format: biochemical. In outline:
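Percent inhibition was calculated from the HTRF 665/620 ratio, using Eu-cryptate anti-phosphotyrosine PT66 plus streptavidin-XL added with EDTA and read after 2 h. The reaction ran 10 min at room temperature: 5 nM tag-cleaved MET (956–1390), 10 µM ATP, 1 µg/ml poly-GAT, and compound from 0.17 nM to 10 µM in 3% DMSO.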

The subject of the next data set is MKN45 cells. Kind of data set: Test D: cellular proliferation by 14C-thymidine pulse, MKN45 cells. Format: cell-based. The settings on record: cell line not stated (HCT116 or MKN45). In outline: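 MKN45 cells (7500/well, RPMI + 10% foetal calf serum) treated with 10 concentrations, 10000 to 0.3 nM in 3-fold steps, duplicate. 14C-thymidine (0.1 μCi/well) added at 72 h; incorporation counted after 24 h pulse, 96 h total treatment.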

Where [1] appears, read: Homo sapiens, MKN-45, cellular proliferation by 14C-thymidine pulse.
Where [2] appears, read: cellular proliferation by 14C-thymidine pulse.

T1 sequence (P08581 956-1390): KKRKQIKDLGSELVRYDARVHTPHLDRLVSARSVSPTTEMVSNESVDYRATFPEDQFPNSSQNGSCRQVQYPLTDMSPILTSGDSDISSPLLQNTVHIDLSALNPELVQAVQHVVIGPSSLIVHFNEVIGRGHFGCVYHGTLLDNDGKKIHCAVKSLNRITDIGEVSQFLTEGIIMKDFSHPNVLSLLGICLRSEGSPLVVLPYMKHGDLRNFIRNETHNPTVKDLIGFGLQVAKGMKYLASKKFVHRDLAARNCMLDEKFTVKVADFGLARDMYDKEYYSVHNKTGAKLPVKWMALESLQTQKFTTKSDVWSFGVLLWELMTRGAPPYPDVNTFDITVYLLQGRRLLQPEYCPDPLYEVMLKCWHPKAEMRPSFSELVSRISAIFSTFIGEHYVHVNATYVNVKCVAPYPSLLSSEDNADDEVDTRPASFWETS

Consider `Cc1ccc(F)c(C(C)Oc2ccc3nc(NC(=O)NCCN4CCOCC4)sc3c2)c1F` (stereo not shown) [Example 123, 1-{6-[1-(2,6-difluoro-3-methylphenyl)ethoxy]-1,3-benzothiazol-2-yl}-3-[2-(morpholin-4-yl)ethyl]urea], for which the melting point lay within 92 to 95 °C. For the same compound, the IC50 on c-MET was < 100 nM. The IC50 in the data set with MKN45 cells (setting [1]) was 500 to 10000 nM.
The matching figures for `CC(Oc1cc2sc(NC(=O)NCCN3CCOCC3)nc2cc1F)c1c(F)ccc(Cl)c1Cl` (stereo not shown) [Example 111, 1-{6-[1-(2,3-dichloro-6-fluorophenyl)ethoxy]-5-fluoro-1,3-benzothiazol-2-yl}-3-[2-(morpholin-4-yl)ethyl]urea]: 220 to 225 °C, < 100 nM and 500 to 10000 nM.
`CC(Oc1ccc2nc(NC(=O)NCCN3CCOCC3)[nH]c2c1)c1c(Cl)cccc1Cl` (stereo not shown) [Example 2, 1-{6-[1-(2,6-dichlorophenyl)ethoxy]-1H-benzimidazol-2-yl}-3-(2-morpholin-4-ylethyl)urea] came in with a melting point of 215 to 220 °C. The IC50 against c-MET was < 100 nM. The compound further showed an IC50 with MKN45 cells (setting [1]) of 500 to 10000 nM.
The matching figures for `CC(Oc1ccc2nc(NC(=O)NCCN3CCOCC3)sc2c1)c1c(Cl)cccc1Cl` (stereo not shown) [Example 17, 1-{6-[1-(2,6-dichlorophenyl)ethoxy]-1,3-benzothiazol-2-yl}-3-(2-morpholin-4-ylethyl)urea]: 165 to 168 °C, < 100 nM and 500 to 10000 nM.
In turn, `CC(Oc1cc2sc(NC(=O)NCCN3CCOCC3)nc2cc1F)c1c(Cl)cccc1Cl` (stereo not shown) [Example 29, 1-{6-[1-(2,6-dichlorophenyl)ethoxy]-5-fluoro-1,3-benzothiazol-2-yl}-3-(2-morpholin-4-ylethyl)urea] showed a melting point of 200 to 205 °C. Also, the IC50 against c-MET was < 100 nM. This compound had an IC50 in the data set with MKN45 cells (setting [1]) of 500 to 10000 nM.
The matching figures for `CC(Oc1ccc2nc(NC(=O)NCCN3CCCC3)sc2c1)c1c(F)ccc(Cl)c1Cl` (stereo not shown) [Example 120, 1-{6-[1-(2,3-dichloro-6-fluorophenyl)ethoxy]-1,3-benzothiazol-2-yl}-3-[2-(pyrrolidin-1-yl)ethyl]urea]: 110 to 115 °C, < 100 nM and < 500 nM.
For `CC(Oc1ccc2nc(NC(=O)NCCN3CCOCC3)[nH]c2c1)c1cc(F)ccc1Cl` (stereo not shown) [Example 3, 1-{6-[1-(2-chloro-5-fluorophenyl)ethoxy]-1H-benzimidazol-2-yl}-3-(2-morpholin-4-ylethyl)urea], the melting point worked out at 210 °C. Also, the IC50 on c-MET is < 100 nM. This compound also displayed a half-inhibitory concentration (IC50) with MKN45 cells (setting [1]) of 500 to 10000 nM.
The matching figures for `CC(Oc1ccc2nc(NC(=O)NCCN3CCOCC3)sc2c1)c1c(Cl)ccc(F)c1Cl` (stereo not shown) [Example 24, 1-{6-[1-(2,6-dichloro-3-fluorophenyl)ethoxy]-1,3-benzothiazol-2-yl}-3-(2-morpholin-4-ylethyl)urea]: 110 °C, < 100 nM and < 500 nM.
The matching figures for `CC(Oc1ccc2nc(NC(=O)NCCN3CCOCC3)sc2c1)c1c(Cl)ccc(Cl)c1Cl` (stereo not shown) [Example 124, 1-[2-(morpholin-4-yl)ethyl]-3-{6-[1-(2,3,6-trichlorophenyl)ethoxy]-1,3-benzothiazol-2-yl}urea]: 189 °C, < 100 nM and 500 to 10000 nM.
The matching figures for `CC(Oc1cc2sc(NC(=O)CCCN3CCCC3)nc2cc1F)c1c(Cl)ccc(F)c1Cl` (stereo not shown) [Example 68, N-{6-[1-(2,6-dichloro-3-fluorophenyl)ethoxy]-5-fluoro-1,3-benzothiazol-2-yl}-4-(pyrrolidin-1-yl)butanamide]: 153 to 157 °C, < 100 nM and 500 to 10000 nM.
Consider `CC(Oc1cc2sc(NC(=O)NCCCN)nc2cc1F)c1c(Cl)ccc(F)c1Cl` (stereo not shown) [Example 128, 1-(3-aminopropyl)-3-{6-[1-(2,6-dichloro-3-fluorophenyl)ethoxy]-5-fluoro-1,3-benzothiazol-2-yl}urea], for which the melting point stood at 163 °C. Moreover, the IC50 against c-MET is < 100 nM. The same compound had an IC50 in the data set with MKN45 cells (setting [1]) of 500 to 10000 nM.
Regarding `CC(Oc1ccc2nc(NC(=O)NCCCN3C(C)CCCC3C)sc2c1)c1c(Cl)ccc(F)c1Cl` (stereo not shown) [Example 47, 1-{6-[1-(2,6-dichloro-3-fluorophenyl)ethoxy]-1,3-benzothiazol-2-yl}-3-[3-(2,6-dimethylpiperidin-1-yl)propyl]urea], the IC50 against c-MET was < 100 nM; in the data set on MKN45 cells (setting [1]) it was 500 to 10000 nM.
With `C[C@@H](Oc1cc2sc(NC(=O)NCCN3CCOCC3)nc2cc1F)c1c(Cl)ccc(F)c1Cl` (single isomer, unassigned) [Example 32, 1-{6-[(1R)-(2,6-dichloro-3-fluorophenyl)ethoxy]-5-fluoro-1,3-benzothiazol-2-yl}-3-(2-morpholin-4-ylethyl)urea or 1-{6-[(1S)-(2,6-dichloro-3-fluorophenyl)ethoxy]-5-fluoro-1,3-benzothiazol-2-yl}-3-(2-morpholin-4-ylethyl)urea], the IC50 on c-MET is < 100 nM; in the data set with MKN45 cells (setting [2]), 500 to 10000 nM.
`CC(Oc1ccc2nc(NC(=O)NCCC3CCCN3C)sc2c1)c1c(Cl)ccc(F)c1Cl` (stereo not shown) [Example 53, 1-{6-[1-(2,6-dichloro-3-fluorophenyl)ethoxy]-1,3-benzothiazol-2-yl}-3-[2-(1-methylpyrrolidin-2-yl)ethyl]urea]: the results for the IC50 against c-MET and in the data set on MKN45 cells (setting [1]) were < 100 nM and < 500 nM, respectively.
The matching figures for `CC(Oc1ccc2nc(NC(=O)NCCCN3CCC(Cc4ccccc4)CC3)sc2c1)c1c(Cl)ccc(F)c1Cl` (stereo not shown) [Example 41, 1-[3-(4-benzylpiperidin-1-yl)propyl]-3-{6-[1-(2,6-dichloro-3-fluorophenyl)ethoxy]-1,3-benzothiazol-2-yl}urea]: < 100 nM and > 10000 nM.
The matching figures for `CC(Oc1ccc2nc(NC(=O)NCCCN(C)C)sc2c1)c1c(Cl)ccc(F)c1Cl` (stereo not shown) [Example 43, 1-{6-[1-(2,6-dichloro-3-fluorophenyl)ethoxy]-1,3-benzothiazol-2-yl}-3-[3-(dimethylamino)propyl]urea]: < 100 nM and > 10000 nM.
Turning to `CC(Oc1ccc2nc(NC(=O)NCCCN3CCOCC3)sc2c1)c1c(Cl)ccc(F)c1Cl` (stereo not shown) [Example 42, 1-{6-[1-(2,6-dichloro-3-fluorophenyl)ethoxy]-1,3-benzothiazol-2-yl}-3-(3-morpholin-4-ylpropyl)urea], the IC50 against c-MET is < 100 nM; in the data set with MKN45 cells (setting [1]), 500 to 10000 nM.
In the case of `CC(Oc1cc2sc(NC(=O)NCCN3CCOCC3)nc2cc1F)c1c(F)ccc(Cl)c1Cl` (single isomer, unassigned) [Example 113, 1-{6-[(1S*)-1-(2,3-dichloro-6-fluorophenyl)ethoxy]-5-fluoro-1,3-benzothiazol-2-yl}-3-[2-(morpholin-4-yl)ethyl]urea], the 50% inhibitory concentration (IC50) on c-MET was < 100 nM; in the data set with MKN45 cells (setting [2]), 500 to 10000 nM.
For `CC(Oc1ccc2nc(NC(=O)NCc3ccccn3)sc2c1)c1c(Cl)ccc(F)c1Cl` (stereo not shown) [Example 58, 1-{6-[1-(2,6-dichloro-3-fluorophenyl)ethoxy]-1,3-benzothiazol-2-yl}-3-(pyridin-2-ylmethyl)urea], the values for the IC50 against c-MET and in the data set on MKN45 cells (setting [1]) were < 100 nM and > 10000 nM, respectively.
The matching figures for `CC(Oc1cc2sc(NC(=O)NCCO)nc2cc1F)c1c(Cl)ccc(F)c1Cl` (single isomer, unassigned) [Example 99, 1-{6-[(1R*)-1-(2,6-dichloro-3-fluorophenyl)ethoxy]-5-fluoro-1,3-benzothiazol-2-yl}-3-(2-hydroxyethyl)urea]: < 100 nM and < 500 nM.
The matching figures for `CCN(CC)CCCOC(=O)Nc1nc2cc(F)c(OC(C)c3c(Cl)ccc(F)c3Cl)cc2s1` (stereo not shown) [Example 70]: < 100 nM and 500 to 10000 nM.
The matching figures for `CC(Oc1ccc2nc(NC(=O)NCCC3CCNCC3)sc2c1)c1c(Cl)ccc(F)c1Cl` (stereo not shown) [Example 39, 1-{6-[1-(2,6-Dichloro-3-fluorophenyl)ethoxy]-1,3-benzothiazol-2-yl}-3-(2-piperidin-4-ylethyl)urea trifluoroacetate]: < 100 nM and 500 to 10000 nM.
On to `CCN1CCN(CCNC(=O)Nc2nc3cc(F)c(OC(C)c4c(Cl)ccc(F)c4Cl)cc3s2)CC1` (single isomer, unassigned) [Example 101, 1-{6-[(1R*)-1-(2,6-dichloro-3-fluorophenyl)ethoxy]-5-fluoro-1,3-benzothiazol-2-yl}-3-[2-(4-ethylpiperazin-1-yl)ethyl]urea], for which the values for the concentration for half-maximal inhibition (IC50) against c-MET and in the data set with MKN45 cells (setting [1]) were < 100 nM and < 500 nM, respectively.
The matching figures for `CC(Oc1ccc2nc(NC(=O)NCCN3CCN(C)CC3)sc2c1)c1c(F)ccc(Cl)c1Cl` (single isomer, unassigned) [Example 109, 1-{6-[(1R*)-1-(2,3-dichloro-6-fluorophenyl)ethoxy]-1,3-benzothiazol-2-yl}-3-[2-(4-methylpiperazin-1-yl)ethyl]urea]: < 100 nM and < 500 nM.
Consider `CC(Oc1ccc2nc(NC(=O)NCCN3CCCC3)sc2c1)c1c(F)ccc(Cl)c1Cl` (single isomer, unassigned) [Example 121, 1-{6-[(1R*)-(2,3-dichloro-6-fluorophenyl)ethoxy]-1,3-benzothiazol-2-yl}-3-[2-(pyrrolidin-1-yl)ethyl]urea], for which the results for the IC50 on c-MET and in the data set with MKN45 cells (setting [2]) were < 100 nM and < 500 nM, respectively.

These data come from patent publication US8188078B2 (Sanofi-Aventis, priority 2007, dated 2012).
